Test systems include SF-539; MDA-N; ACHN; A549; SK-MEL-5; COLO 205; Hs-578T; MOLT-4; Malme-3M; M14; TK-10; 786-0; MDA-MB-231; HT-29; NCI-H226; NCI/ADR-RES; HL-60; SNB-75; UACC-62; SW-620.
Holding throughout (experiment): DTP human tumour cell line panel, 48 h

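Five concentrations, 48 hours, 96-well plates. Abbreviation: GI50, concentration required for 50% inhibition of growth.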 Activity calls are given as the source filed them. Cut-off read from the data, not from the text of the source: active = GI50 up to about 1.1 µM and inactive = higher. Some results are limits rather than exact numbers.

Regarding `COc1ccc(/C=C/c2nsc(/C=C/c3ccc(OC)cc3)n2)cc1`, the GI50 in the test on SF-539, in the test on MDA-N, with ACHN, in the test on A549, in the test with SK-MEL-5 and in the test with COLO 205 was > 100 µM (inactive) in each case. Further, the GI50 in the test on Hs-578T is > 100 µM (inactive); in the test on MOLT-4, 33 µM (inactive); with Malme-3M it was > 100 µM (inactive); in the test with M14, > 100 µM (inactive); in the test on TK-10, > 100 µM (inactive); in the test on 786-0, 21.8 µM (inactive). For the same compound, the GI50 in the test with MDA-MB-231 is > 100 µM (inactive); with HT-29 it was 36.5 µM (inactive); in the test with NCI-H226, > 100 µM (inactive); with NCI/ADR-RES, > 100 µM (inactive); with HL-60 it was 24.8 µM (inactive); in the test with SNB-75, > 100 µM (inactive).
Take `C[C@@H]1CC[C@@H](C)[C@](C)(CCc2ccoc2)C/C=C\C=C/1C(=O)O`: the GI50 with SF-539, with MDA-N, with UACC-62, in the test with SW-620, in the test on ACHN and with A549 was > 50 µM (inactive) each time. Also, the GI50 in the test with SK-MEL-5 was > 50 µM (inactive); in the test with COLO 205, > 50 µM (inactive); in the test on Hs-578T, > 50 µM (inactive); in the test on MOLT-4 it was 31.8 µM (inactive); in the test on Malme-3M, > 50 µM (inactive); in the test on M14, > 50 µM (inactive). For the same compound, the GI50 with TK-10, in the test with 786-0, with MDA-MB-231, in the test on HT-29, with NCI-H226 and in the test on NCI/ADR-RES was > 50 µM (inactive) throughout. The GI50 in the test on HL-60 is 15.3 µM (inactive); in the test on SNB-75, > 50 µM (inactive).
For the compound `O=C1N/C(=N/N=C/C(O)C(O)C(O)CO)N/C1=C\c1c[nH]c2ccccc12` (configuration not stated), the GI50 with SF-539, in the test on MDA-N, in the test on UACC-62, in the test with SW-620, with ACHN and in the test on A549 was > 100 µM (inactive) each time. In addition, the GI50 in the test with SK-MEL-5, in the test on COLO 205, with Hs-578T, with MOLT-4, in the test with Malme-3M and in the test on M14 was > 100 µM (inactive) each time. Moreover, the GI50 in the test with TK-10, in the test with 786-0, in the test with MDA-MB-231, in the test on HT-29, in the test on NCI-H226 and in the test on NCI/ADR-RES was > 100 µM (inactive) in each case. Further, the GI50 with HL-60 and in the test with SNB-75 was > 100 µM (inactive) throughout.
For the compound `Oc1ccc2cc(Br)ccc2c1-c1c(O)ccc2ccc(Br)cc12`, the GI50 with SF-539 is 18.5 µM (inactive); with MDA-N, 12.2 µM (inactive); in the test with UACC-62, 17.3 µM (inactive); with SW-620, 11.7 µM (inactive); in the test with ACHN it was 14.8 µM (inactive); with A549, 15.2 µM (inactive). The GI50 is 23 µM (inactive) in the test with SK-MEL-5; 13.6 µM (inactive) in the test with COLO 205; 11.9 µM (inactive) with Hs-578T; 4.85 µM (inactive) in the test with MOLT-4; 13.4 µM (inactive) in the test on Malme-3M; 17.8 µM (inactive) in the test with M14. Moreover, the GI50 in the test on TK-10 is 16.7 µM (inactive); in the test with 786-0, 13.8 µM (inactive); in the test on MDA-MB-231 it was 10 µM (inactive); in the test with HT-29, 3.07 µM (inactive); in the test with NCI-H226 it was 13.2 µM (inactive); with NCI/ADR-RES, 13.6 µM (inactive). In addition, the GI50 in the test with HL-60 is 5.42 µM (inactive); with SNB-75, 4.73 µM (inactive).
Take `N#Cc1c(N)c2c(c(-c3ccccc3)c1-c1ccccc1)C(=O)N(Nc1ccccc1)C2=O`: the GI50 in the test with SF-539 was 35.8 µM (inactive); in the test on MDA-N it was 36.8 µM (inactive); with UACC-62, 49.9 µM (inactive); in the test with SW-620 it was > 100 µM (inactive); with ACHN, 59.2 µM (inactive); with A549, 26.9 µM (inactive). Moreover, the GI50 with SK-MEL-5 is 28.8 µM (inactive); in the test with COLO 205, 20.7 µM (inactive); with Hs-578T, 95.3 µM (inactive); with MOLT-4 it was 27.4 µM (inactive); with Malme-3M, > 100 µM (inactive); in the test with M14, 22.2 µM (inactive). In addition, the GI50 in the test with TK-10 is 42.1 µM (inactive); with 786-0, 40.6 µM (inactive); in the test with MDA-MB-231, > 100 µM (inactive); in the test on NCI-H226, 37.3 µM (inactive); with NCI/ADR-RES it was 38.2 µM (inactive); in the test on HL-60, 22.8 µM (inactive). Besides, the GI50 in the test with SNB-75 was 38.4 µM (inactive).
Regarding `Cc1cc(C23OC4COC(C)(C)OC4C2OC(C)(C)O3)nc2ccccc12` (configuration not stated), the GI50 with SF-539, with MDA-N, with UACC-62, in the test with SW-620, in the test on ACHN and with A549 was > 100 µM (inactive) each time. The GI50 with SK-MEL-5 is > 100 µM (inactive); with COLO 205, > 100 µM (inactive); in the test on Hs-578T it was 82.2 µM (inactive); with MOLT-4, 25.5 µM (inactive); in the test with Malme-3M, > 100 µM (inactive); in the test on M14, > 100 µM (inactive). The GI50 in the test with TK-10 is > 100 µM (inactive); in the test on 786-0, > 100 µM (inactive); in the test with MDA-MB-231, > 100 µM (inactive); in the test on HT-29 it was 76.6 µM (inactive); in the test with NCI-H226, > 100 µM (inactive); in the test with NCI/ADR-RES, > 100 µM (inactive). Moreover, the values for the GI50 with HL-60 and in the test with SNB-75 were 33.4 µM (inactive) and > 100 µM (inactive), respectively.
As for `S=c1cc(-c2ccc3c(c2)OCO3)s[nH]1`, the GI50 was > 100 µM (inactive) in the test with SF-539; > 100 µM (inactive) in the test with MDA-N; 83.2 µM (inactive) in the test on UACC-62; > 100 µM (inactive) with SW-620; > 100 µM (inactive) in the test on ACHN; > 100 µM (inactive) in the test with A549. Also, the GI50 in the test with SK-MEL-5 was > 100 µM (inactive); with COLO 205 it was > 100 µM (inactive); with Hs-578T, > 100 µM (inactive); in the test with MOLT-4, 65.3 µM (inactive); in the test with Malme-3M, > 100 µM (inactive); with M14 it was > 100 µM (inactive). The GI50 with TK-10 is > 100 µM (inactive); in the test on 786-0, > 100 µM (inactive); in the test with MDA-MB-231, > 100 µM (inactive); in the test on HT-29, > 100 µM (inactive); in the test with NCI-H226, 58.5 µM (inactive); with NCI/ADR-RES it was > 100 µM (inactive). Besides, the values for the GI50 with HL-60 and with SNB-75 were > 100 µM (inactive) and 48.4 µM (inactive), respectively.
As for `O=C(NCCCN(CCCCN(CCCNC(=O)C(F)(F)F)Cc1ccccc1)Cc1ccccc1)C(F)(F)F`, the GI50 in the test on SF-539 was 13.5 µM (inactive); in the test with MDA-N, 15.7 µM (inactive); in the test on UACC-62, 16.9 µM (inactive); with SW-620, 16.5 µM (inactive); in the test with ACHN it was 16.5 µM (inactive); in the test with A549 it was 24.2 µM (inactive). Moreover, the GI50 with SK-MEL-5 was 3.39 µM (inactive); in the test on COLO 205, 10.7 µM (inactive); with Hs-578T it was 16.6 µM (inactive); in the test on MOLT-4, 14.7 µM (inactive); in the test on Malme-3M it was 15.1 µM (inactive); with M14, 3.49 µM (inactive). Further, the GI50 in the test on TK-10 is 23.3 µM (inactive); with 786-0 it was 12.6 µM (inactive); with MDA-MB-231 it was 17.5 µM (inactive); with HT-29, 6.49 µM (inactive); in the test on NCI-H226, 17.2 µM (inactive); with NCI/ADR-RES, 14.7 µM (inactive). Further, the GI50 in the test with HL-60 is 12.9 µM (inactive); in the test on SNB-75 it was 12.6 µM (inactive).
For `CO[C@H]1C[C@@H]2CC[C@@H](C)[C@@](O)(O2)C(=O)C(=O)N2CCCC[C@H]2C(=O)O[C@H]([C@H](C)C[C@@H]2CC[C@@H](OC(=O)C(C)(CO)CO)[C@H](OC)C2)CC(=O)[C@H](C)/C=C(\C)[C@@H](O)[C@@H](OC)C(=O)[C@H](C)C[C@H](C)/C=C/C=C/C=C/1C` [TEMSIROLIMUS], the GI50 in the test on SF-539 was 0.00873 µM (active); with MDA-N, 4.03 µM (inactive); in the test on UACC-62, 0.0141 µM (active); with SW-620, 4.23 µM (inactive); with ACHN it was 0.00723 µM (active); in the test on A549, 0.0301 µM (active). For the same compound, the GI50 was 0.0792 µM (active) in the test on SK-MEL-5; 3.98 µM (inactive) in the test on COLO 205; 0.00724 µM (active) with Hs-578T; 0.00176 µM (active) in the test with MOLT-4; 0.000199 µM (active) in the test on Malme-3M; 0.0417 µM (active) in the test with M14. Also, the GI50 in the test with TK-10 was 0.00262 µM (active); in the test with 786-0, 0.00312 µM (active); with MDA-MB-231 it was 0.0217 µM (active); with HT-29, 0.0376 µM (active); with NCI-H226, 0.0116 µM (active); in the test on NCI/ADR-RES, 0.0881 µM (active). Further, the GI50 in the test on HL-60 is 2.72 µM (inactive); in the test on SNB-75 it was 0.0104 µM (active).
As for `Cn1c2ccccc2c(=O)c2cccc(C(=O)NC(CCC(N)=O)C(=O)O)c21` (configuration not stated), the GI50 with SF-539, with MDA-N, in the test with UACC-62, with SW-620, in the test on ACHN and in the test with A549 was > 100 µM (inactive) throughout. Further, the GI50 in the test with SK-MEL-5, in the test with COLO 205, with Hs-578T, in the test on MOLT-4, with Malme-3M and in the test with M14 was > 100 µM (inactive) each time. The GI50 with TK-10 is > 100 µM (inactive); in the test on 786-0, > 100 µM (inactive); with MDA-MB-231, > 100 µM (inactive); in the test with HT-29, > 100 µM (inactive); in the test on NCI-H226 it was > 100 µM (inactive); in the test on NCI/ADR-RES, 60.3 µM (inactive). Moreover, the GI50 in the test with HL-60 was 0.0585 µM (active); with SNB-75, > 100 µM (inactive).

As usually defined, the GI50 is the concentration at which growth is held to half of that of the control.

The values are drawn from ChEMBL document CHEMBL1201862, “PubChem BioAssay data set” (2004).
